# Like-named read-outs stand apart in the source and are kept apart here.
# Tests used:
# HeLa cells = assay: [3H] Adenosine uptake assay; assay type: cell-based; conditions: accumulation of tritiated adenosine into HeLa cells, compound concentration range 10 μM to 0.032 nM, read-out: ADU inhibition IC50 (adenosine uptake inhibition potency)
# How it was run: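 HeLa cells in HBSS + 5% FBS preincubated 30 min at ambient temperature with compound (0.25% DMSO), then [3H]adenosine (500 nM stock) added for 60 min. Uptake measured by scintillation proximity counting; IC50 from 4-parameter fit of counts vs log concentration.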
# [1] = molecular target: BTK enzyme (recombinant full-length BTK, hBTK) (Homo sapiens (Human), UniProt Q06187); assay: Btk enzyme activity assay, LANCE TR-FRET; assay type: biochemical; conditions: 50 pM hBTK, 2 μM biotin-A5-peptide, 25 μM ATP; 60 minute compound & enzyme incubation; read-out: BTK binding IC50
# Protocol: Btk Enzyme Activity Assay Methods
# BTK enzymatic activity was determined with the LANCE (Lanthanide Chelate Excite) TR-FRET (Time-resolved fluorescence resonance energy transfer) assay. […] After 60 minutes incubation with detection reagents, reaction plates were read on a PerkinElmer EnVision plate reader using standard TR-FRET protocol.
# Sequence of BTK enzyme (recombinant full-length BTK, hBTK) (Q06187 whole entry): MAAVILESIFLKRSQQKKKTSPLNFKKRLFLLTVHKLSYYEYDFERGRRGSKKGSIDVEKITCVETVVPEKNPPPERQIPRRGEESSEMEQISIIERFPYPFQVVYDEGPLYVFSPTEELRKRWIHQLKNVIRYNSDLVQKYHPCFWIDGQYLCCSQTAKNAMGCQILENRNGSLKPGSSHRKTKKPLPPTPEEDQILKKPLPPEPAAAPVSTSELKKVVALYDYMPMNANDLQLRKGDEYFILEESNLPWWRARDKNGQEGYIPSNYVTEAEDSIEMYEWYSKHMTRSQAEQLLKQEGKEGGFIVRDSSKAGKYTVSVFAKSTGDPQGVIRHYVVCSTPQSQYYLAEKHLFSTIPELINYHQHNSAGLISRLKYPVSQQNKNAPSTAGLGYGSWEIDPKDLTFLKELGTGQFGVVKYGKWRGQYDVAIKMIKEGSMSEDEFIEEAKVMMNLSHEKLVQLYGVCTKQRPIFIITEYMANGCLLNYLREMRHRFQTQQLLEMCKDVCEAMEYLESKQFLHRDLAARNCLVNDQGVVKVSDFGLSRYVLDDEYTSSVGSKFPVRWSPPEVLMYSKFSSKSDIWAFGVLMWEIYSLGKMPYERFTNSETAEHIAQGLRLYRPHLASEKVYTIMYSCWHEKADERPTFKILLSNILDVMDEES
compound,measurement,setting,value
"Nc1nccn2c(C34CC(C(=O)O)(C3)C4)nc(-c3ccc(C(=O)Nc4cc(C(F)(F)F)ccn4)cc3)c12 [Example 34, 3-[8-amino-1-(4-{[4-(trifluoromethyl)pyridin-2-yl]carbamoyl}phenyl)imidazo[1,5-a]pyrazin-3-yl]bicyclo[1.1.1] pentane-1-carboxylic acid]",IC50,"HeLa cells; Homo sapiens, HeLa",6480 nM
same,IC50,[1],0.39 nM
"C[C@H]1CO[C@@H](c2nc(-c3ccc(C(=O)Nc4cc(C(F)F)ccn4)cc3)c3c(N)nccn23)CN1[C@H]1CC[C@](C)(C(=O)O)CC1 [Example 206, trans-4-{(2R,5S)-2-[8-amino-1-(4-{[4-(difluoromethyl)pyridin-2-yl]carbamoyl}phenyl)imidazo [1,5-a]pyrazin-3-yl]-5-methylmorpholin-4-yl}-1-methylcyclohexanecarboxylic acid]",IC50,"HeLa cells; Homo sapiens, HeLa",10000 nM
same,IC50,[1],1 nM
"C[C@@]1(C(=O)O)CCC[C@@](C)(c2nc(-c3ccc(C(=O)Nc4cc(C(F)(F)F)ccn4)cc3)c3c(N)nccn23)C1 [Example 137, (1R,3R)-3-[8-amino-1-(4-{[4-(trifluoromethyl)pyridin-2-yl]carbamoyl}phenyl)imidazo[1,5-a]pyrazin-3-yl]-1,3-dimethylcyclohexane-carboxylic acid]",IC50,"HeLa cells; Homo sapiens, HeLa",3660 nM
same,IC50,[1],0.9 nM
"COc1cc(C(=O)Nc2cc(C(F)(F)F)ccn2)cc(F)c1-c1nc([C@@H]2CC[C@](C)(C(=O)O)C2(C)C)n2ccnc(N)c12 [Example 115, (1S,3R)-3-[8-amino-1-(2-fluoro-6-methoxy-4-{[4-(trifluoromethyl)pyridin-2-yl]carbamoyl}phenyl)imidazo[1,5-a]pyrazin-3-yl]-1,2,2-trimethylcyclopentane carboxylic acid]",IC50,"HeLa cells; Homo sapiens, HeLa",8840 nM
same,IC50,[1],0.26 nM
"C[C@H]1CO[C@@H](c2nc(-c3ccc(C(=O)Nc4cc(C(F)(F)F)ccn4)cc3)c3c(N)nccn23)CN1[C@H]1CC[C@](C)(C(=O)O)CC1 [Example 191, trans-4-{(2R,5S)-2-[8-amino-1-(4-{[4-(trifluoromethyl)pyridin-2-yl]carbamoyl}phenyl)imidazo [1,5-a]pyrazin-3-yl]-5-methylmorpholin-4-yl}-1-methylcyclohexanecarboxylic acid]",IC50,"HeLa cells; Homo sapiens, HeLa",1190 nM
same,IC50,[1],0.65 nM
"C[C@H]1CO[C@@H](c2nc(-c3ccc(C(=O)Nc4cc(C(F)(F)F)ccn4)cc3F)c3c(N)nccn23)CN1[C@H]1CC[C@@](C)(C(=O)O)CC1 [Example 194, cis-4-{(2R,5S)-2-[8-amino-1-(2-fluoro-4-{[4-(trifluoromethyl)pyridin-2-yl]carbamoyl}phenyl)imidazo [1,5-a]pyrazin-3-yl]-5-methylmorpholin-4-yl}-1-methylcyclohexanecarboxylic acid]",IC50,"HeLa cells; Homo sapiens, HeLa",4040 nM
same,IC50,[1],1.7 nM
"CC(C)[C@@]1(C(=O)O)CC[C@H](c2nc(-c3ccc(C(=O)Nc4cc(C(F)(F)F)ccn4)cc3)c3c(N)ncc(Cl)n23)C1 [Example 107, (1R,3S)-3-[8-amino-5-chloro-1-(4-{[4-(trifluoromethyl)pyridin-2-yl]carbamoyl}phenyl)imidazo[1,5-a]pyrazin-3-yl]-1-(1-methylethyl) cyclopentane-carboxylic acid]",IC50,"HeLa cells; Homo sapiens, HeLa",1390 nM
same,IC50,[1],3.2 nM
"CC(C)(C(=O)O)C1CCC(c2nc(-c3ccc(C(=O)Nc4cc(C(F)(F)F)ccn4)cc3)c3c(N)nccn23)C1 (centres unmarked) [Example 96, 2-{3-[8-amino-1-(4-{[4-(trifluoromethyl)pyridin-2-yl]carbamoyl}phenyl)imidazo[1,5-a]pyrazin-3-yl]cyclopentyl}-2-methylpropanoic acid]",IC50,HeLa cells,10000 nM
same,IC50,[1],4 nM
"Nc1nccn2c([C@@H]3CCN[C@H](C(=O)O)C3)nc(-c3ccc(C(=O)Nc4cc(C(F)(F)F)ccn4)cc3)c12 [Example 32, (2S,4R)-4-[8-amino-1-(4-{[4-(trifluoromethyl)pyridin-2-yl]carbamoyl}phenyl)imidazo[1,5-a]pyrazin-3-yl]piperidine-2-carboxylic acid]",IC50,"HeLa cells; Homo sapiens, HeLa",5910 nM
same,IC50,[1],2.2 nM
"CC1(C(=O)O)CCC(c2nc(-c3ccc(C(=O)Nc4cc(C5CC5)ccn4)cc3F)c3c(N)ncc(Cl)n23)CC1 (centres unmarked) [Example 164, 4-(8-amino-5-chloro-1-{4-[(4-cyclopropylpyridin-2-yl)carbamoyl]-2-fluorophenyl}imidazo [1,5-a]pyrazin-3-yl)-1-methylcyclohexane-carboxylic acid]",IC50,"HeLa cells; Homo sapiens, HeLa",6170 nM
same,IC50,[1],33 nM
"N#Cc1ccnc(NC(=O)c2ccc(-c3nc(C45C6C7C4C4C5C6C74C(=O)O)n4ccnc(N)c34)c(F)c2)c1 (centres unmarked) [Example 76, 4-(8-amino-1-(4-((4-cyanopyridin-2-yl)carbamoyl)-2-fluorophenyl)imidazo [1,5-a]pyrazin-3-yl)cubane-1-carboxylic acid]",IC50,"HeLa cells; Homo sapiens, HeLa",666 nM
same,IC50,[1],0.41 nM
"Nc1nccn2c([C@@H]3CC[C@H](C(=O)NC4(C(=O)O)CC4)C3)nc(-c3ccc(C(=O)Nc4cc(C(F)(F)F)ccn4)cc3)c12 [Example 16, 1-[({(1S,3R)-3-[8-amino-1-(4-{[4-(trifluoromethyl)pyridin-2-yl]carbamoyl}phenyl)imidazo[1,5-a]pyrazin-3-yl]cyclopentyl}carbonyl)amino] cyclopropane-carboxylic acid]",IC50,"HeLa cells; Homo sapiens, HeLa",4780 nM
same,IC50,[1],2.1 nM
"C[C@H]1CO[C@@H](c2nc(-c3ccc(C(=O)Nc4cc(C(F)F)ccn4)cc3F)c3c(N)ncc(Cl)n23)CN1[C@H]1CC[C@](C)(C(=O)O)CC1 [Example 207, trans-4-{(2R,5S)-2-[8-amino-5-chloro-1-(4-{[4-(difluoromethyl)pyridin-2-yl]carbamoyl}-2-fluorophenyl)imidazo[1,5-a]pyrazin-3-yl]-5-methylmorpholin-4-yl}-1-methylcyclohexanecarboxylic acid]",IC50,"HeLa cells; Homo sapiens, HeLa",10000 nM
same,IC50,[1],737 nM
"CC(C)(C(=O)O)N1CCC[C@@H](c2nc(-c3ccc(C(=O)Nc4cc(C(F)(F)F)ccn4)cc3F)c3c(N)nccn23)C1 [Example 186, 2-{(3R)-3-[8-amino-1-(2-fluoro-4-{[4-(trifluoromethyl)pyridin-2-yl]carbamoyl}phenyl)imidazo [1,5-a]pyrazin-3-yl]piperidin-1-yl}-2-methylpropanoic acid]",IC50,"HeLa cells; Homo sapiens, HeLa",1240 nM
same,IC50,[1],9.4 nM
"Nc1nccn2c([C@H]3CC[C@@H](C(=O)N4CC[C@@H](C(=O)O)C4)C3)nc(-c3ccc(C(=O)Nc4cc(C(F)(F)F)ccn4)cc3)c12 [Example 19, (3R)-1-({(1R,3S)-3-[8-amino-1-(4-{[4-(trifluoromethyl)pyridin-2-yl]carbamoyl}phenyl)imidazo[1,5-a]pyrazin-3-yl]cyclopentyl}carbonyl)pyrrolidine-3-carboxylic acid]",IC50,"HeLa cells; Homo sapiens, HeLa",2870 nM
same,IC50,[1],0.62 nM
"CC1(C)[C@@H](C(=O)O)CC[C@@]1(C)c1nc(-c2ccc(C(=O)Nc3cc(C(F)(F)F)ccn3)cc2)c2c(N)nccn12 [Example 142, (1S,3R)-3-[8-amino-1-(4-{[4-(trifluoromethyl)pyridin-2-yl]carbamoyl}phenyl)imidazo[1,5-a]pyrazin-3-yl]-2,2,3-trimethylcyclopentane carboxylic acid]",IC50,"HeLa cells; Homo sapiens, HeLa",4320 nM
same,IC50,[1],1.2 nM
"CC(C)(C(=O)O)N1CCO[C@@H](c2nc(-c3ccc(C(=O)Nc4cc(C(F)(F)F)ccn4)cc3)c3c(N)nccn23)C1 [Example 183, 2-{(2R)-2-[8-amino-1-(4-{[4-(trifluoromethyl)pyridin-2-yl]carbamoyl}phenyl)imidazo [1,5-a]pyrazin-3-yl]morpholin-4-yl}-2-methylpropanoic acid]",IC50,"HeLa cells; Homo sapiens, HeLa",665 nM
same,IC50,[1],13.2 nM
"CC(C)(C(=O)O)C1CCC(c2nc(-c3ccc(C(=O)Nc4cc(C(F)(F)F)ccn4)cc3)c3c(N)nccn23)C1 (centres unmarked) [Example 95, 2-{3-[8-amino-1-(4-{[4-(trifluoromethyl)pyridin-2-yl]carbamoyl}phenyl)imidazo[1,5-a]pyrazin-3-yl]cyclopentyl}-2-methylpropanoic acid]",IC50,"HeLa cells; Homo sapiens, HeLa",5100 nM
same,IC50,[1],1.7 nM
"CC1(C)[C@@H](C(=O)O)CC[C@]1(C)c1nc(-c2ccc(C(=O)Nc3cc(C(F)(F)F)ccn3)cc2)c2c(N)nccn12 [Example 147, (1S,3S)-3-[8-amino-1-(4-{[4-(trifluoromethyl)pyridin-2-yl]carbamoyl}phenyl)imidazo[1,5-a]pyrazin-3-yl]-2,2,3-trimethylcyclopentane carboxylic acid]",IC50,"HeLa cells; Homo sapiens, HeLa",10000 nM
same,IC50,[1],7 nM
"CCOc1cc(C(=O)Nc2cc(C(F)(F)F)ccn2)ccc1-c1nc([C@]2(C)CC[C@](C)(C(=O)O)C2)n2ccnc(N)c12 [Example 87, (1S,3R)-3-[8-amino-1-(2-ethoxy-4-{[4-(trifluoromethyl)pyridin-2-yl]carbamoyl}phenyl)imidazo[1,5-a]pyrazin-3-yl]-1,3-dimethylcyclopentane carboxylic acid]",IC50,"HeLa cells; Homo sapiens, HeLa",9790 nM
same,IC50,[1],13.9 nM
"CCOc1cc(C(=O)Nc2cc(C3CC3)ccn2)cc(F)c1-c1nc([C@@H]2CC[C@](C)(C(=O)O)C2(C)C)n2ccnc(N)c12 [Example 121, (1S,3R)-3-(8-amino-1-{4-[(4-cyclopropylpyridin-2-yl)carbamoyl]-2-ethoxy-6-fluorophenyl}imidazo [1,5-a]pyrazin-3-yl)-1,2,2-trimethylcyclopentane carboxylic acid]",IC50,"HeLa cells; Homo sapiens, HeLa",7320 nM
same,IC50,[1],0.37 nM
"Nc1nccn2c(C34CCC(C(=O)O)(CC3)CC4)nc(-c3ccc(C(=O)Nc4cc(C(F)(F)F)ccn4)cc3O)c12 [Example 161, 4-[8-amino-1-(2-hydroxy-4-{[4-(trifluoromethyl)pyridin-2-yl]carbamoyl}phenyl)imidazo[1,5-a]pyrazin-3-yl]bicyclo[2.2.2] octane-1-carboxylic acid]",IC50,"HeLa cells; Homo sapiens, HeLa",531 nM
same,IC50,[1],0.41 nM

# From patent publication US10087188B2, “Benzamide imidazopyrazine Btk inhibitors” (MERCK SHARP & DOHME CORP., priority 2014, dated 2018)
